PMC11286754 (Nature Communications, 2024)

What was measured:
[1] = biological target: T1, SMTA (transaminase from Shimia marina) (Shimia marina, UniProt A0A0P1EM06); type: binding
[2] = biological target: T1, SMTA (transaminase from Shimia marina); type: binding; remark: listed apart in the source

T1 sequence (A0A0P1EM06 1-462 limits assumed): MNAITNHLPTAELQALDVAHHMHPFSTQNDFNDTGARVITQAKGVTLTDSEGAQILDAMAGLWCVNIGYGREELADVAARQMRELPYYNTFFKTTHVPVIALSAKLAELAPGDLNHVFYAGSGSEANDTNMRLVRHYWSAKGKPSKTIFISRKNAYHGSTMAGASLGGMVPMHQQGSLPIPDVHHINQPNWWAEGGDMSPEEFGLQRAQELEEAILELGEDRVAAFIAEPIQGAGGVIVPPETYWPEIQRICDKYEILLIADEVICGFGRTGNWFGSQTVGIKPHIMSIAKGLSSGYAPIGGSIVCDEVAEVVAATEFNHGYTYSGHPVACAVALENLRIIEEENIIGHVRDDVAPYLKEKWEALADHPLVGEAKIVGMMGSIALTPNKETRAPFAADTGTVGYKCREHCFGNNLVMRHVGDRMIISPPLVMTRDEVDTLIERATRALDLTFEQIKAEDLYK

Row | SMILES | X-ray crystal structure, 2.14 A [1] | cofactor release assay [2]
1 | Cc1ncc(COP(=O)(O)O)c(C=O)c1O [PLP, pyridoxal-5′-phosphate] | The apparent electron density indicated a Schiff base between PLP and the catalytic lysine K291 | –
2 | Cc1ncc(COP(=O)(O)O)c(CN)c1O [PMP] | – | binding affinity of both PLP and PMP compared to that of wild-type SMTA
